Experiments:
[1] = molecular target: T1, human Cot catalytic domain (30-397 amino acids) (Homo sapiens, UniProt P41279); assay: High Throughput Cot Biochemical Assay (KinEASE TR-FRET); conditions: Cot biochemical HTRF (KinEASE TR-FRET) assay; read-out: IC50 HTRF
T1 construct: Purified recombinant human Cot catalytic domain (30-397 amino acids) was purchased from Cama Biosciences; purchased Cama Biosciences (so in the source)
How it was run: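 TR-FRET readout: Eu-labeled phospho-specific antibody binds XL665-tagged STK3 peptide after phosphorylation by Cot (aa 30-397, 5 nM). Conditions: 400 μM ATP, 1 μM peptide, MOPS pH 7.0 buffer with MgOAc, DTT, BSA, NP-40, glycerol; 0.1% DMSO.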

[2] = tested on: TNFα production in LPS-stimulated human monocytes; assay: Cot Monocyte TNFα Cell Based Assay; conditions: Homo sapiens, Monocyte, TNFα in LPS-stimulated human monocytes; read-out: EC50 TNF
How it was run: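 TR-FRET read-out of total secreted TNFα, normalized as % control (unstimulated = 0%, LPS-stimulated = 100%). Cells (5,000/well) were exposed to compound 1 h at 37 °C, then to 50 pg/ml LPS for a further 4 h.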

T1 sequence (P41279 30-397): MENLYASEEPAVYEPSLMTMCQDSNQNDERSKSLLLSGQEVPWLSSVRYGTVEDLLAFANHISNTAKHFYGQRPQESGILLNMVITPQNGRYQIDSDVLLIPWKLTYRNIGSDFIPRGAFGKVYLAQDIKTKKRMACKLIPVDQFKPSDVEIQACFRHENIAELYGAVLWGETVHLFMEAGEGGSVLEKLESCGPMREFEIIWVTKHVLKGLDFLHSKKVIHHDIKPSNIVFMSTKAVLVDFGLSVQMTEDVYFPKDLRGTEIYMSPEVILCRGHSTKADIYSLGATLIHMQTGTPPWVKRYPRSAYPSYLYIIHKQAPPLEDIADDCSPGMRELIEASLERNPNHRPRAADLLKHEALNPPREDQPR

Row | IC50 [1] [nM] | EC50 [2] [nM] | Structure (SMILES)
1 | 7 | 109 | CC(C)(C)N1CCC(n2cc([C@@H](Nc3cc(Cl)c4ncc(C#N)c(Nc5cccc(Cl)c5F)c4c3)c3ccccc3)nn2)CC1 [Example 628, (S)-6-(((1-(1-(tert-butyl)piperidin-4-yl)-1H-1,2,3-triazol-4-yl)(phenyl)methyl)amino)-8-chloro-4-((3-chloro-2-fluorophenyl)amino)quinoline-3-carbonitrile]
2 | 3 | 72 | CC[C@@H](Nc1c(C#N)cnc2c(Cl)cc(N[C@@H](c3ccccc3)c3cn(C4CCN(C(C)(C)C)CC4)nn3)cc12)c1ccccc1 [Example 629, 6-(((S)-(1-(1-(tert-butyl)piperidin-4-yl)-1H-1,2,3-triazol-4-yl)(phenyl)methyl)amino)-8-chloro-4-(((R)-1-phenylpropyl)amino)quinoline-3-carbonitrile]
3 | 3 | 1630 | Cn1ccnc1-c1cccc([C@H](Nc2cc(Cl)c3ncc(C#N)c(Nc4ccc(F)c(Cl)c4)c3c2)c2cn(C3CCN(C(C)(C)C)CC3)nn2)c1 [Example 630, (S)-6-(((1-(1-(tert-butyl)piperidin-4-yl)-1H-1,2,3-triazol-4-yl)(3-(1-methyl-1H-imidazol-2-yl)phenyl)methyl)amino)-8-chloro-4-((3-chloro-4-fluorophenyl)amino)quinoline-3-carbonitrile]
4 | 3 | 163 | CC(C)(C)N1CCC(n2cc([C@@H](Nc3cc(Cl)c4ncc(C#N)c(Nc5ccc(F)c(Cl)c5)c4c3)c3cccc(-c4nccs4)c3)nn2)CC1 [Example 632, (S)-6-(((1-(1-(tert-butyl)piperidin-4-yl)-1H-1,2,3-triazol-4-yl)(3-(thiazol-2-yl)phenyl)methyl)amino)-8-chloro-4-((3-chloro-4-fluorophenyl)amino)quinoline-3-carbonitrile]
5 | 10 | 1580 | C[C@@H](Nc1c(C#N)cnc2c(Cl)cc(N[C@@H](c3ccccc3)c3cn(C4CCN(C(C)(C)C)CC4)nn3)cc12)c1cccc(F)c1 [Example 633, 6-(((S)-(1-(1-(tert-butyl)piperidin-4-yl)-1H-1,2,3-triazol-4-yl)(phenyl)methyl)amino)-8-chloro-4-(((R)-1-(3-fluorophenyl)ethyl)amino) quinoline-3-carbonitrile]
6 | 30 | 3090 | C[C@@H](Nc1c(C#N)cnc2c(Cl)cc(N[C@@H](c3ccccc3)c3cn(C4CCN(C(C)(C)C)CC4)nn3)cc12)c1ccc(F)cc1 [Example 634, 6-(((S)-(1-(1-(tert-butyl)piperidin-4-yl)-1H-1,2,3-triazol-4-yl)(phenyl)methyl)amino)-8-chloro-4-(((R)-1-(4-fluorophenyl)ethyl)amino) quinoline-3-carbonitrile]
7 | 7 | 151 | CC(C)(C)N1CCC(n2cc([C@@H](Nc3cc(Cl)c4ncc(C#N)c(Nc5ccc(F)c(Cl)c5)c4c3)c3cccc(I)c3)nn2)CC1 [Example 643]
8 | 2 | 41 | CC(C)(C)N1CCC(n2cc([C@@H](Nc3cc(Cl)c4ncc(C#N)c(Nc5ccc(F)c(Cl)c5)c4c3)c3cccc(C(=O)N4CC(F)(F)C4)c3)nn2)CC1 [Example 645, (S)-6-(((1-(1-(tert-butyl)piperidin-4-yl)-1H-1,2,3-triazol-4-yl)(3-(3,3-difluoroazetidine-1-carbonyl)phenyl)methyl)amino)-8-chloro-4-((3-chloro-4-fluorophenyl)amino)quinoline-3-carbonitrile]
9 | 1 | 49 | CC(C)(C)N1CCC(n2cc([C@@H](Nc3cc(Cl)c4ncc(C#N)c(Nc5ccc(F)c(Cl)c5)c4c3)c3cccc(C(=O)N4CC(F)C4)c3)nn2)CC1 [Example 646, (S)-6-(((1-(1-(tert-butyl)piperidin-4-yl)-1H-1,2,3-triazol-4-yl)(3-(3-fluoroazetidine-1-carbonyl)phenyl)methyl)amino)-8-chloro-4-((3-chloro-4-fluorophenyl)amino)quinoline-3-carbonitrile]
10 | 32 | 661 | CC(C)(C)N1CCC(n2cc([C@@H](Nc3cc(Cl)c4ncc(C#N)c(Nc5ccc(F)c(F)c5F)c4c3)c3ccc(Cl)cc3)nn2)CC1 [Example 650, (S)-6-(((1-(1-(tert-butyl)piperidin-4-yl)-1H-1,2,3-triazol-4-yl)(4-chlorophenyl)methyl)amino)-8-chloro-4-((2,3,4-trifluorophenyl)amino)quinoline-3-carbonitrile]

The next lines start with the molecule.

Row | Structure (SMILES) | IC50 [1] [nM] | EC50 [2] [nM]
11 | CC[C@@H](Nc1c(C#N)cnc2c(Cl)cc(N[C@@H](c3ccccc3)c3c[nH]nn3)cc12)c1ccccc1 [Example 627, 8-chloro-6-(((S)-phenyl(1H-1,2,3-triazol-4-yl)methyl)amino)-4-(((R)-1-phenylpropyl)amino) quinoline-3-carbonitrile] | 16 | 456
12 | N#Cc1cnc2c(Cl)cc(N[C@@H](c3ccc(Cl)cc3)c3c[nH]nn3)cc2c1Nc1ccc(F)c(F)c1F [Example 631, (S)-8-chloro-6-(((4-chlorophenyl)(1H-1,2,3-triazol-4-yl)methyl)amino)-4-((2,3,4-trifluorophenyl)amino)quinoline-3-carbonitrile] | 166 | 1080
13 | CC(C)(C)N1CCC(n2cc([C@@H](Nc3cc(Cl)c4ncc(C#N)c(NC5C6CC7CC(C6)CC5C7)c4c3)c3ccccc3)nn2)CC1 (stereo partly drawn) [Example 635, 4-(((1S,3S,5S,7S)-adamantan-2-yl)amino)-6-(((S)-(1-(1-(tert-butyl)piperidin-4-yl)-1H-1,2,3-triazol-4-yl)(phenyl)methyl)amino)-8-chloroquinoline-3-carbonitrile] | 13 | 1080
14 | CC(C)(C)N1CCC(n2cc([C@@H](Nc3cc(Cl)c4ncc(C#N)c(NC56CCC7CC(CC(C7)C5)C6)c4c3)c3ccccc3)nn2)CC1 [Example 636, 6-(((S)-(1-(1-(tert-butyl)piperidin-4-yl)-1H-1,2,3-triazol-4-yl)(phenyl)methyl)amino)-8-chloro-4-(((1R,3r,6S,8S)-tricyclo[4.3.1.13,8]undecan-3-yl)amino)quinoline-3-carbonitrile] | 143 | 2390
15 | CC(C)(C)N1CCC(n2cc([C@@H](Nc3cc(Cl)c4ncc(C#N)c(NC56CC7CC(CC(C7)C5)C6)c4c3)c3ccccc3)nn2)CC1 [Example 637, 4-(((3R,5R,7R)-adamantan-1-yl)amino)-6-(((S)-(1-(1-(tert-butyl)piperidin-4-yl)-1H-1,2,3-triazol-4-yl)(phenyl)methyl)amino)-8-chloroquinoline-3-carbonitrile] | 36 | 1280
16 | N#Cc1cnc2c(Cl)cc(N[C@@H](c3ccc(Cl)cc3)c3c[nH]nn3)cc2c1Nc1ccc2c(cnn2Cc2ccccc2)c1 [Example 638, (S)-4-((1-benzyl-1H-indazol-5-yl)amino)-8-chloro-6-(((4-chlorophenyl)(1H-1,2,3-triazol-4-yl)methyl)amino)quinoline-3-carbonitrile] | > 10000 | 2650
17 | N#Cc1cnc2c(Cl)cc(N[C@@H](c3ccc(Cl)cc3)c3c[nH]nn3)cc2c1Nc1cc(Cl)ccc1F [Example 639, (S)-8-chloro-4-((5-chloro-2-fluorophenyl)amino)-6-(((4-chlorophenyl)(1H-1,2,3-triazol-4-yl)methyl)amino)quinoline-3-carbonitrile] | 664 | 1710
18 | N#Cc1cnc2c(Cl)cc(N[C@@H](c3ccc(Cl)cc3)c3c[nH]nn3)cc2c1Nc1c(F)cccc1F [Example 640, (S)-8-chloro-6-(((4-chlorophenyl)(1H-1,2,3-triazol-4-yl)methyl)amino)-4-((2,6-difluorophenyl)amino)quinoline-3-carbonitrile] | 2340 | 2840
19 | N#Cc1cnc2c(Cl)cc(NC(c3ccccc3)c3cn(C4CCNCC4)cn3)cc2c1Nc1ccc(F)c(Cl)c1 (stereo not shown) [Example 642, 8-chloro-4-((3-chloro-4-fluorophenyl)amino)-6-((phenyl (1-(piperidin-4-yl)-1H-imidazo-4-yl)methyl)amino)quinoline-3-carbonitrile] | 17 | 383
20 | N#Cc1cnc2c(Cl)cc(N[C@@H](c3ccccc3)c3c[nH]nn3)cc2c1Nc1ccc(Cl)c(Cl)c1F [Example 644, (S)-8-chloro-4-((3,4-dichloro-2-fluorophenyl)amino)-6-((phenyl(1H-1,2,3-triazol-4-yl)methyl)amino)quinoline-3-carbonitrile] | 132 | 1100
21 | N#Cc1cnc2c(Cl)cc(N[C@@H](c3ccc(Cl)cc3)c3c[nH]nn3)cc2c1Nc1cc(F)c(F)cc1F [Example 647, (S)-8-chloro-6-(((4-chlorophenyl)(1H-1,2,3-triazol-4-yl)methyl)amino)-4-((2,4,5-trifluorophenyl)amino)quinoline-3-carbonitrile] | 377 | 3240
22 | N#Cc1cnc2c(Cl)cc(N[C@@H](c3ccc(Cl)cc3)c3c[nH]nn3)cc2c1Nc1ccc(OCc2ccccc2)c(Cl)c1 [Example 648, (S)-4-((4-(benzyloxy)-3-chlorophenyl)amino)-8-chloro-6-(((4-chlorophenyl)(1H-1,2,3-triazol-4-yl)methyl)amino)quinoline-3-carbonitrile] | > 10000 | 4430
23 | CCOc1ccc(Nc2c(C#N)cnc3c(Cl)cc(N[C@@H](c4ccc(Cl)cc4)c4c[nH]nn4)cc23)cc1Cl [Example 649, (S)-8-chloro-4-((3-chloro-4-ethoxyphenyl)amino)-6-(((4-chlorophenyl)(1H-1,2,3-triazol-4-yl)methyl)amino)quinoline-3-carbonitrile] | 1460 | 2740
